Assay results published in paper PMC6479711, “Chemical Constituents of Anacardium occidentale as Inhibitors of Trypanosoma cruzi Sirtuins” (Molecules, 2019).
Read-outs that look alike come from different tables or passages of the source.

Tests used:
[1] = tested on: amastigote forms of T. cruzi in infected hFIB; assay: In vitro drug combination of compound 2 and benznidazole in infected hFIB (Chou-Talalay CI); type: cell-based; details: Trypanosoma cruzi, 72 h, read-out: EC50 ± SD, alone
Description: (§1) The culture was washed with saline solution and infected with trypomastigotes (10 parasites:1 host cell). Following 24 h of incubation, the non-internalized parasites were removed by washing with saline solution, and fresh medium, with or without compounds at different concentrations, was added to the culture before the incubations proceeded for 72 h. Cells were then fixed and stained by the addition of 50 μL of a solution containing 4% paraformaldehyde and 4 μM Draq5 DNA dye (BioStatus, Shepshed, UK) per well. Plates were imaged in an Operetta High Content Imaging System (PerkinElmer, Waltham, MA, USA) confocal microscope using a 10X air objective. Nine images were collected from each well for reliable statistical analysis. The percentage of intracellular parasites was determined and compared to the negative control, and compound antiparasitic activity was also expressed as EC50. The reference drug, benznidazole, was used as the positive control at 50 µM. Each drug concentration was carried out in triplicate.

[2] = tested on: Human primary skin fibroblasts (hFIB); assay: Host cell toxicity (AlamarBlue); type: cell-based; details: for hFIB CC50 ± SEM: hFIB viability 72 h after treatment
Description: (§2) Human primary skin fibroblasts (hFIB) were obtained from patient skin biopsy and cultured in Dulbecco’s Modified Eagle Medium (DMEM) supplemented with 10% fetal bovine serum (FBS) and Penicillin-Streptomycin (0.2 U/mL) (all from Gibco/Life Technologies, Grand Island, NY, USA). The cells were seeded on 96-well plates at 3 × 10^4 cells/mL and treated with the drugs for 72 h of incubation time. Following the treatments, cells were washed with saline solution twice, and cell viability was determined by the AlamarBlue assay (Thermo Fisher Scientific, Carlsbad, CA, USA), according to the manufacturer’s instructions. Colorimetric readings were performed after 24 h at 570 and 600 nm. Fifty-percent cytotoxic concentration (CC50) values were calculated using data points gathered from three independent experiments.

[3] = Host cell toxicity (AlamarBlue); type: cell-based, human; details: human, hFIB viability 72 h after treatment, read-out: hFIB CC50 ± SEM
Description: as §2

[4] = tested on: Trypomastigote forms of T. cruzi (Y strain); assay: Activity against trypomastigotes (viable parasite count); type: cell-based, Trypanosoma cruzi; details: for EC50: read-out: Trypomastigote EC50 ± SEM
Description: All experiments were performed with the Y strain of T. cruzi. Trypomastigote forms of T. cruzi were obtained from the supernatant of infected LLC-MK2 cells and maintained in DMEM supplemented with 10% FBS and Penicillin-Streptomycin (100 U/mL) (all from Gibco/Life Technologies) at 37 °C with 5% CO2.
Trypomastigotes were incubated in 96-well plates (2 × 10^6 cells/mL) in DMEM, in the presence or absence of the compounds at different concentrations for 24 h. […] Each compound concentration was tested in triplicate, and three independent experiments were performed. The reference drug, benznidazole, was used as the positive control.

[5] = tested on: intracellular amastigotes of T. cruzi in infected hFIB; assay: In vitro T. cruzi infection assay (intracellular amastigotes in hFIB, high content imaging); type: cell-based, Trypanosoma cruzi; details: read-out: Amastigote EC50 ± SEM
Description: as §1, with “All experiments were performed with the Y strain of T. cruzi. […] The culture” for “The culture”

TcSir2rp1 = TcSir2rp1 (Trypanosoma cruzi, UniProt Q4DVL9); assay: TcSir2rp1 deacetylase activity assay (fluorogenic peptide, NAD+); type: biochemical; details: recombinant enzyme; 30 min pre-incubation; sirtuin activity determined 4 h after incubation; read-out: TcSir2rp1 EC50 ± SEM
Description: Deacetylase assays were performed from the protocol established previously by [8]. In summary, the reaction was performed in two steps. In the first step, a synthetic peptide as the substrate (Abz-Gly-Pro-acetyl-Lys-Ser-Gln-EDDnp, where Abz is ortho-aminobenzoic acid and EDDnp is N-[2,4-dinitrophenyl]ethylenediamine) was dissolved in 50 µL of 25 mM Tris-HCl (pH 8.0), 137 mM NaCl, 2.7 mM KCl, and 1 mM MgCl2 containing 0.6 mM NAD^+ (Sigma-Aldrich). TcSir2rp1 or TcSir2rp3 were added and the reactions performed for 4 h at 30 °C. In the inhibition experiments, the enzyme was pre-treated for 30 min at room temperature with the indicated compounds and the addition of the substrate started the reaction. In the second step, the reactions were stopped with 50 µL of a solution containing 12 mM nicotinamide in 100 mM NaCl and 50 mM Tris-HCl (pH 8.0), in the absence or presence of 0.6 mg/mL trypsin (Sigma-Aldrich). After further incubation for 15 min, the fluorescence at 420 nm was read (excitation, 320 nm) in a SpectraMax M3 plate reader (Molecular Devices, Sunnyvale, CA, USA).

TcSir2rp3 = TcSir2rp3 (Trypanosoma cruzi, UniProt Q4E5B9, K2R); assay: TcSir2rp3 deacetylase activity assay (fluorogenic peptide, NAD+); type: biochemical
Description: Recombinant TcSir2rp3 was obtained as described previously by. The TcSir2rp3 gene was amplified from the genomic DNA of the T. cruzi Y strain using the oligonucleotides TcSir2rp3_BamHI_F_5′-[…] AGG-3′ and TcSir2rp3_XhoI_R_5′-[…]-3′ and cloned into pET28a (Novagen, Itapira, Brazil). The recombinant vector was used to transform ArcticExpress DE3 bacteria (Agilent Technologies) and protein was expressed by induction with 0.1 mM IPTG at 12 °C.
Deacetylase assays were performed from the protocol established previously by. In summary, the reaction was performed in two steps. In the first step, a synthetic peptide as the substrate (Abz-Gly-Pro-acetyl-Lys-Ser-Gln-EDDnp, where Abz is ortho-aminobenzoic acid and EDDnp is N-[2,4-dinitrophenyl]ethylenediamine) was dissolved in 50 µL of 25 mM Tris-HCl (pH 8.0), 137 mM NaCl, 2.7 mM KCl, and 1 mM MgCl2 containing 0.6 mM NAD^+ (Sigma-Aldrich). TcSir2rp1 or TcSir2rp3 were added and the reactions performed for 4 h at 30 °C. In the inhibition experiments, the enzyme was pre-treated for 30 min at room temperature with the indicated compounds and the addition of the substrate started the reaction. […] After further incubation for 15 min, the fluorescence at 420 nm was read (excitation, 320 nm) in a SpectraMax M3 plate reader (Molecular Devices, Sunnyvale, CA, USA).

[6] = human primary skin fibroblasts (hFIB)
[7] = Y strain, 24 h after incubation with compounds
[8] = infected hFIB, 72 h after treatment
[9] = Trypanosoma cruzi, 72 h, infected hFIB, 72 h after treatment

TcSir2rp1, sequence (Q4DVL9 entry or part of it): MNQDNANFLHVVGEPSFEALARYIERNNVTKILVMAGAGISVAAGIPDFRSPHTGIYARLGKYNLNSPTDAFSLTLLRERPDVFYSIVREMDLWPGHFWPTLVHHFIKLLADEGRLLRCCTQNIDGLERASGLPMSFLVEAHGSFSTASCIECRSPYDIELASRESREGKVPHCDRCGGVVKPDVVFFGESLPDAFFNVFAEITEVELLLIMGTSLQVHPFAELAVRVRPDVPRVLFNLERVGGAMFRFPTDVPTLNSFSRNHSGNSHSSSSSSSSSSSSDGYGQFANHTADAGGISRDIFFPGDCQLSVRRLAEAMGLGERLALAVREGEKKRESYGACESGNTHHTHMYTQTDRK
TcSir2rp3, sequence (Q4E5B9 whole entry K2R): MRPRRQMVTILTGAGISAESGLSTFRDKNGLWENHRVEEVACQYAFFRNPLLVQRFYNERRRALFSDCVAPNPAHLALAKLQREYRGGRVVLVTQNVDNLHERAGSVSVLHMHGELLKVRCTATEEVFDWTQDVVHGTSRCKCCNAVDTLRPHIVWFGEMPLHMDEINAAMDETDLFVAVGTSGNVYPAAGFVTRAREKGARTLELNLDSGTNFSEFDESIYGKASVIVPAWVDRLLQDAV

O=C(Cn1ccnc1[N+](=O)[O-])NCc1ccccc1 [Benznidazole, reference compound]
EC50 [1]: 2.17 ± 0.09 µM | SI (selectivity index), ratio of CC50 (hFIB) to EC50 (amastigote) [2]: >32 | CC50 at 72 h [3, 6]: > 100 µM | EC50 ([4]; Trypanosoma cruzi, Y strain, 24 h after incubation with compounds): 11.4 ± 1.09 µM | EC50 ([5]; Trypanosoma cruzi, 72 h): 3.13 ± 0.87 µM

3-(8Z)-8-Pentadecen-1-ylphenol [Compound 4]
CC50 [2]: 45.47 ± 0.27 µM | EC50 [4, 7]: 43.5 ± 2.32 µM | EC50 [5, 8]: 15.3 ± 2 µM

C=CC/C=C\C/C=C\CCCCCCCc1cc(O)cc(O)c1 [Compound 1, 5-(8Z,11Z)-8,11,14-Pentadecatrien-1-yl-1,3-benzenediol]
SI (selectivity index), ratio of CC50 (hFIB) to EC50 (amastigote) [2]: 4 | CC50 at 72 h [3]: 47.17 ± 0.1 µM | EC50 ([4]; Trypanosoma cruzi, 24 h): 23.36 ± 0.12 µM | EC50 [5, 9]: 11.8 ± 0.4 µM

CCC/C=C\C/C=C\CCCCCCCc1cccc(O)c1C(=O)O [Compound 5, 2-Hydroxy-6-(8Z,11Z)-8,11-pentadecadien-1-ylbenzoic acid]
EC50 (TcSir2rp1): 23.3 ± 2.51 µM | EC50 (TcSir2rp3): 6.08 ± 1.16 µM | hFIB CC50 ± SEM [2]: not toxic | CC50 at 72 h [3, 6]: > 100 µM | Trypomastigote EC50 ± SEM [4, 7]: no effect | EC50 [5, 9]: ~40 µM | EC50 [5, 8]: 41.7 ± 5.53 µM

CCCCCC/C=C\CCCCCCCc1cccc(O)c1C(=O)O [Compound 6, 2-Hydroxy-6-(8Z)-8-pentadecenylbenzoic acid]
EC50 (TcSir2rp1): 16.2 ± 4.88 µM | EC50 (TcSir2rp3): 7.41 ± 0.65 µM | hFIB CC50 ± SEM [2]: not toxic | CC50 at 72 h [3, 6]: > 100 µM | Trypomastigote EC50 ± SEM [4, 7]: no effect | EC50 [5, 9]: ~40 µM | EC50 [5, 8]: 42.4 ± 5.11 µM
